{
  "source": "patent US11034980B2",
  "about": "“Microbial engineering for the production of isoprenoids” (Massachusetts Institute of Technology, priority 2018, dated 2021)",
  "key": {"Taxadiene Synthase (TDS)": {"target": "T1, Taxadiene Synthase (TDS) (Taxus brevifolia, UniProt Q41594)", "T1 construct": "truncated first 60 amino acids, methionine added; made in house; host or cells: E. coli BL21 (DE3)", "T1 sequence (Q41594 61-862 limits assumed)": "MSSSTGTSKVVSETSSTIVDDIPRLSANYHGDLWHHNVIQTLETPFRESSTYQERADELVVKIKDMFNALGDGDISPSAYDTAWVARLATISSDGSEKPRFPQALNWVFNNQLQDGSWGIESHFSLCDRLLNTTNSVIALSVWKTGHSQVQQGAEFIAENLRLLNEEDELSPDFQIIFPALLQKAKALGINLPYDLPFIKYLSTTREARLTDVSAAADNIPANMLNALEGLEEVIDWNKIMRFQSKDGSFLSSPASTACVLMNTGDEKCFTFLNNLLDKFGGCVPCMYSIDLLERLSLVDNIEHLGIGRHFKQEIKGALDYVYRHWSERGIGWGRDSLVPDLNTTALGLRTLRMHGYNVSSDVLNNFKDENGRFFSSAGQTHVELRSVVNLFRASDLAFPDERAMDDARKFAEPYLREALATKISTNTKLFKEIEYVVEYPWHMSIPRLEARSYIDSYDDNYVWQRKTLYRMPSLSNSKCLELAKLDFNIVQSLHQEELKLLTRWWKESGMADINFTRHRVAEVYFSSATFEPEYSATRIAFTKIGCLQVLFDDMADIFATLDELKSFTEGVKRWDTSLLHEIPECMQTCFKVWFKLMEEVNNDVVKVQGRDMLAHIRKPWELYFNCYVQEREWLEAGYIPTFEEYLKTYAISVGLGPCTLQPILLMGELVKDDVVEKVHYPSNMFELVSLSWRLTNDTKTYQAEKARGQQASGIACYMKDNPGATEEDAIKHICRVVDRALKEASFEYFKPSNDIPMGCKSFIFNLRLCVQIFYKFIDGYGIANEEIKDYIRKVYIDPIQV", "test": "TDS activity by pyrophosphate assay", "type": "biochemical", "settings": "30° C., pH 7.4"}, "[1]": {"target": "T2, isopentenyl phosphate kinase (IPK) (Arabidopsis thaliana, UniProt Q8H1F7)", "T2 construct": "Arabidopsis thaliana (AAN12957.1), codon optimized; made in house; host or cells: E. coli BL21 (DE3)", "T2 sequence (Q8H1F7 1-332)": "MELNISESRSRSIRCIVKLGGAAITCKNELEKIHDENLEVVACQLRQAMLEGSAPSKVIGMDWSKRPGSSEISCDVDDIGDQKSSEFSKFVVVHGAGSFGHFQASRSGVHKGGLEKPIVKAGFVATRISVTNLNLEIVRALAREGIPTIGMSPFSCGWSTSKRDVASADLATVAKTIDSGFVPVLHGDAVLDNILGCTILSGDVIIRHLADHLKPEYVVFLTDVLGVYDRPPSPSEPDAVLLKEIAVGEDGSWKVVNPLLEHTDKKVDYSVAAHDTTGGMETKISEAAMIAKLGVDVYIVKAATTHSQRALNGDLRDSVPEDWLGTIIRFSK", "test": "IPK kinetics by ATP consumption, PK-LDH coupled NADH assay", "type": "biochemical", "settings": "10 mM ATP, 30° C., pH 7.4", "procedure": "A single colony from each strain containing one plasmid for the expression of a single enzyme was inoculated into 5 mL of sterile LB media (BD Sciences) with kanamycin and grown overnight at 37° C. One milliliter was then inoculated into a 1 L flask containing 200 mL of sterile SOB media (AMERSCO) with kanamycin. The culture was grown at 30° C. until an optical density (OD) of 0.4-0.6 (λ=600 nm). At this point protein production was induced by the addition of IPTG for a final concentration of 0.1 mM and continued at 30° C. for 3 h. Cells were harvested by centrifugation at 3750 rpm in an Allegra X12R centrifuge (Beckman-Coulter). The supernatant was removed and the cell pellets were frozen at −20° C. until purification. Proteins were visualized by SDS-PAGE performed accordingly to the manufacturer's guidelines (Bio-rad). Gradient (4-20%) gels were purchased from Biorad, as were the Kaleidoscope pre-stained protein ladder, Laemmli 4× sample buffer, Tris-glycine-SDS buffer, and mini-protean electrophoresis chambers. Gels were stained using Instant-Blue (Expedeon). Protein concentrations were very roughly estimated from the gel using Image J (NIH) in order to determine an appropriate amount of resin for purification. Protein Purification All purification steps were performed in a single day on ice and in a cold room when possible. Cell pellets were thawed and resuspended in 30 mL of NPI-10 buffer (50 mM NaH2PO4, 300 mM NaCl, 10 mM imidazole, pH 8.0) and supplemented with 0.5 mM PMSF immediately prior to cell lysis. Cells were lysed by 2-3 passages through an EmulsiFlex-C5 high-pressure homogenizer (Avestin). Lysates were then centrifuged at 4 C for 15 min to remove cellular debris. The clarified lysate was loaded onto a Ni-NTA resin (Gold Bio, capacity 50 mg/mL) which was housed in a gravity column (Thermofisher) and was pre-equilibrated with 10 column volumes (CV) of NPI-10 buffer. The column was then washed with 10 CV of NPI-20 buffer (20 mM imidazole). The enzyme was then eluted from the column by 3 CV using NPI-250 buffer (250 mM imidazole). Enzymes were then exchanged into 50 mM Tris-HCl pH 7.5 using 10 kDa Microseps (Millipore) by centrifugation and repeated buffer exchanges until the imidazole was calculated to be under 1 mM. […] Enzyme concentration was determined using a bicinchoninic acid (BCA) assay kit from Pierce using bovine serum albumin as a standard (BSA). […] The kinetics for CK were previously determined as described. The kinetics for IPK were determined by ATP consumption using a pyruvate kinase (PK) lactate dehydrogenase (LDH) coupled assay (FIGS. 16A & 16B). […] NADH was made fresh each time and the appropriate concentration was determined by constructing a standard curve using a SpectraMax M3 and selecting the highest value in the linear range. […]"}, "CK": {"target": "T3, CK (Saccharomyces cerevisiae, UniProt P20485)", "T3 construct": "S. cerevisiae (AAA34499.1), codon optimized; made in house; host or cells: E. coli BL21 (DE3)", "T3 sequence (P20485 1-582)": "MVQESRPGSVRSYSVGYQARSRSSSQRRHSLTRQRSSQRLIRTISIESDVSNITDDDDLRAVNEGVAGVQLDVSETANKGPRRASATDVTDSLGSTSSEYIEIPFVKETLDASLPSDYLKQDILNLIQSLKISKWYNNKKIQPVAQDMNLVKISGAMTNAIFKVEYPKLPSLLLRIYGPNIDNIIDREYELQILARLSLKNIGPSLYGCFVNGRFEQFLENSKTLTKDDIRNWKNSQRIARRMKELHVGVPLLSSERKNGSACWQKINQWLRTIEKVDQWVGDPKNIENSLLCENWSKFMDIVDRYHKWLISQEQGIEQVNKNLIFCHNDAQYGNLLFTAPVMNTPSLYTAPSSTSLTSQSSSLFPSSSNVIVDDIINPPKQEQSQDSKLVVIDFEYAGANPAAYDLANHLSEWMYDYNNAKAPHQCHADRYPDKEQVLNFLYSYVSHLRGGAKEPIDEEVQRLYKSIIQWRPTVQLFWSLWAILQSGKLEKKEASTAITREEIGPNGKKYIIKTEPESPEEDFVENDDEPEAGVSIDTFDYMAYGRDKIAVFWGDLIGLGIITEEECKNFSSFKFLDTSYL", "test": "Metabolic control analysis (lin-log elasticities) of multi-enzyme perturbation study", "type": "biochemical", "settings": "lin-log kinetics, 60 min, 5 mM isoprenol, 10 mM ATP", "description": "(§1) In order to identify a PSS, an in vitro reaction was run, using the optimal enzyme concentrations, as predicted from the initial perturbation study, using a “main interactions only” linear regression model. A time profile of metabolic intermediate concentrations was constructed (FIG. 32). […] The reaction was stopped at 60 min in the repeat experiment.\n(§2) [formula] where i represents the unit vector, v represents the relative flux compared to the reference state flux J^0, E^x0 represents the elasticity matrix for the metabolic intermediate concentrations (x^0) in relation to the enzyme concentration compared to the reference state as designed by e/e^0 and the relative intermediate metabolic concentrations compared to the reference state (x/x^0).\n(§3) By applying this model to the data generated in the large perturbation study and alternating the designated reference state, 25 sets of elasticities were generated, using the maximum connectivity assumption to calculate the elasticity of every enzyme for each measured metabolite."}, "IPK": {"target": "T4, IPK (Arabidopsis thaliana, UniProt Q8H1F7)", "T4 construct": "Arabidopsis thaliana (AAN12957.1), codon optimized; made in house; host or cells: E. coli BL21 (DE3)", "T4 sequence (Q8H1F7 1-332)": "T2 sequence (Q8H1F7 1-332)", "test": "Metabolic control analysis (lin-log elasticities) of multi-enzyme perturbation study", "type": "biochemical", "settings": "lin-log kinetics, 60 min, 5 mM isoprenol, 10 mM ATP", "description": "as §1, §2, §3"}, "[2]": {"target": "Geranylgeranyl pyrophosphate synthase (GGPPS) (Taxus canadensis, UniProt Q9ZPM3)", "sequence (Q9ZPM3 entry or part of it)": "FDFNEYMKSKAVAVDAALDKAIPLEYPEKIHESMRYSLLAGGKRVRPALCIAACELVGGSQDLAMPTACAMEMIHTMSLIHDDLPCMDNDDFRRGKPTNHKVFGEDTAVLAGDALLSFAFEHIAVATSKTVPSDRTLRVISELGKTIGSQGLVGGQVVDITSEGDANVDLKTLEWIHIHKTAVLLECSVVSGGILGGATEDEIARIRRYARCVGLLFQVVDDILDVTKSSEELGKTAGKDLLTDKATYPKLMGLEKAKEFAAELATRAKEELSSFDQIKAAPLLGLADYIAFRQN", "test": "GGPPS activity by pyrophosphate formation (EnzChek pyrophosphate assay)", "type": "biochemical", "settings": "reaction IPP + FPP; IPP varied with FPP held at 100 μM", "procedure": "A single colony from each strain containing one plasmid for the expression of a single enzyme was inoculated into 5 mL of sterile LB media (BD Sciences) with kanamycin and grown overnight at 37° C. One milliliter was then inoculated into a 1 L flask containing 200 mL of sterile SOB media (AMERSCO) with kanamycin. The culture was grown at 30° C. until an optical density (OD) of 0.4-0.6 (λ=600 nm). At this point protein production was induced by the addition of IPTG for a final concentration of 0.1 mM and continued at 30° C. for 3 h. Cells were harvested by centrifugation at 3750 rpm in an Allegra X12R centrifuge (Beckman-Coulter). […] Enzymes were then exchanged into 50 mM Tris-HCl pH 7.5 using 10 kDa Microseps (Millipore) by centrifugation and repeated buffer exchanges until the imidazole was calculated to be under 1 mM. […] Enzyme concentration was determined using a bicinchoninic acid (BCA) assay kit from Pierce using bovine serum albumin as a standard (BSA). […] The kinetics for CK were previously determined as described. The kinetics for IPK were determined by ATP consumption using a pyruvate kinase (PK) lactate dehydrogenase (LDH) coupled assay (FIGS. 16A & 16B). […] NADH was made fresh each time and the appropriate concentration was determined by constructing a standard curve using a SpectraMax M3 and selecting the highest value in the linear range. […]"}, "[3]": {"target": "Farnesyl pyrophosphate synthase (IspA) (Escherichia coli, UniProt P22939)", "sequence (P22939 whole entry)": "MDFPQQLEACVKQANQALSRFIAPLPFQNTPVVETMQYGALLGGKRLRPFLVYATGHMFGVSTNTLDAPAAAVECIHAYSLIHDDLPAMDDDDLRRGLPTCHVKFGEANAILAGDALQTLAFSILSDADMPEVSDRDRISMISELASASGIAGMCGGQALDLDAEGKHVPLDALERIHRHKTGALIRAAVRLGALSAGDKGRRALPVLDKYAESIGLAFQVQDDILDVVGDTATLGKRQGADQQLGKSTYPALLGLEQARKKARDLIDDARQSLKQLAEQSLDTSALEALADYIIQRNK", "settings": "Ref Ku et al., 2005, Weaver et al., 2015, cited from earlier work"}, "[4]": {"test_system": "Geranylgeranyl pyrophosphate synthase (GGPPS)", "settings": "reported elsewhere (Hefner et al., 1998); cited from earlier work"}},
  "note": "Where two headings read alike, the source gives them in different places.",
  "data": [
    {"molecule": "CC(C)=CCC/C(C)=C/CC/C(C)=C/CC/C(C)=C/COP(=O)(O)OP(=O)(O)O", "note": "[GGPP, geranylgeranyl diphosphate]", "values": [
      {"measurement": "Km", "setting": "Taxadiene Synthase (TDS)", "result": 43, "unit": "µM"},
      {"measurement": "kcat", "setting": "Taxadiene Synthase (TDS)", "result": 23.1, "unit": "S^−1"}
    ]},
    {"molecule": "C=C(C)CCOP(=O)(O)O", "note": "[IP, isopentenyl monophosphate]", "values": [
      {"measurement": "Km", "setting": "[1]", "result": 21.7, "unit": "µM"},
      {"measurement": "kcat", "setting": "[1]", "result": 45.5, "unit": "S^−1"},
      {"measurement": "effect on CK activity (elasticity)", "setting": "CK", "result": "slightly inhibitory"},
      {"measurement": "effect on IPK activity (elasticity)", "setting": "IPK", "result": "stimulatory"}
    ]},
    {"molecule": "C=C(C)CCO[P@@](=O)(O)OP(=O)(O)O", "note": "[IPP, isopentenyl pyrophosphate]", "values": [
      {"measurement": "Km", "setting": "[2]", "result": 13.5, "unit": "µM"},
      {"measurement": "Km", "setting": "[3]; reaction IPP + DMAPP", "result": 29.3, "unit": "µM"},
      {"measurement": "Km", "setting": "[3]; reaction IPP + GPP", "result": 5.5, "unit": "µM"},
      {"measurement": "Km", "setting": "[4]", "result": 6, "unit": "µM"}
    ]}
  ]
}
